Among the data in a melting point compilation (Tetko et al.) are melting point values, retold here.

A word on the melting point: it is the temperature, or range, at which the solid turns liquid.

The compound `O=C(Nc1nc(-c2ccc(Cl)cc2)cs1)c1ccccc1` yielded a melting point of 120 °C. The compound `CC(=O)Nc1cccc(NCC(=O)c2ccccc2)c1` came in with a melting point of 171 °C. On to `BrC(=C(c1ccccc1)c1ccccc1)c1ccccc1`, for which the melting point was in the range of 115 to 117 °C.

For `COC(=O)c1c(C)n[nH]c1-c1cc(C)on1`, the melting point lay within 168 to 170 °C. `CN(N)c1cnn(C)c(=O)c1Cl`: the melting point is 131 to 133 °C. As for `O=C(Nc1ccc(Cl)cc1)c1cc(Br)ccc1O`, the melting point came to 240 °C.

`CCCCC(C)CC(O)C=CC1C(O)CC(=O)C1CCCCC=CC(=O)O` (centres undefined) yielded a melting point of 97 °C. In turn, `COC(=O)c1ccc2[nH]ccc2c1` registered a melting point of 125 °C.

In turn, `COc1ccc(C=C2SC(=NN=CC(C)C)NC2=O)cc1` registered a melting point of 258 to 260 °C. The compound `FCC(F)(F)C(F)F` gave a melting point of -82 °C. `C=CCC1(O)CCC2C3CCC4=CC(=O)CCC4=C3C=CC21C` (centres undefined) came in with a melting point of 120 °C.

The compound `CC(C)(C)OC(=O)N[C@@H](Cc1ccc(O)cc1)C(=O)O` had a melting point of 135 to 140 °C. In turn, `Sc1nccn1-c1cc(Cl)ccc1Cl` returned a melting point of 273 °C. In turn, `O=[N+]([O-])C=Cc1cc(Cl)ccc1O` registered a melting point of 148 to 154 °C. Compound `C=CCNC(SC)=C(C#N)C#N` gave a melting point of 91 °C. Compound `OC(c1ccccc1)c1c(F)c(F)c(F)c(F)c1F` (centres undefined) came in with a melting point of 54 to 57 °C.

In the case of `CC(=O)C1CCC2C3CCC4CC(O)CCC4(C)C3CCC12C` (centres undefined), the melting point came out at 194 °C.

As to `O=C(c1ccccc1)C1CNc2cc3c(cc2C1)CC(C(=O)c1ccccc1)CN3` (centres undefined), the melting point was determined as 209 °C. The compound `O=c1ccn(C2CC(F)C(CO)O2)c(=O)[nH]1` (centres undefined) returned a melting point of 186 °C.

Consider `CCOC(=O)C(CO)(CO)C(=O)OCC`, for which the melting point was 50 °C. In turn, `NC(=O)NN=C(O)/C=C/c1ccccc1` gave a melting point of 197 to 198 °C.

In turn, `CC(=O)Oc1ccccc1C(C)=O` gave a melting point of 90 °C. With `CC(C)OC(=O)C1(S(=O)(=O)c2ccc([N+](=O)[O-])cc2)CCCCC1`, the melting point came to 110 °C. Consider `O=C1C=CC(=O)N1c1ccc(Nc2ccccc2)c2ccccc12`, for which the melting point amounted to 207 °C. For `S=C(c1ccc2c(c1)OCO2)N1CCCCC1` the value was 113 °C. `O=Cc1ccc(I)o1`: the melting point was 127 °C. Turning to `O=P(O)(O)CCN(CP(c1ccccc1)c1ccccc1)CP(c1ccccc1)c1ccccc1`, the melting point is 146 to 148 °C. `Cc1nc(/C(C#N)=C/c2ccc(F)cc2)sc1/N=N/c1c(Br)cc(Br)cc1Br` came in with a melting point of 170 °C. For the compound `Nc1c(Br)cc(C2CCCCC2)cc1Br`, the melting point fell in the range of 37 to 38 °C. `CCCCCCCCC=CCCCCCCCCO`: the melting point came to 6 °C. Regarding `CC1(C)CC(=O)C2=C(C1)Nc1c(ccc3ccccc13)C2c1ccc(O)cc1` (centres undefined), the melting point stood at 312 °C. Consider `O=C1/C(=N\Nc2ccc(Br)cc2)C(C(F)(F)F)=NN1c1ccccc1`, for which the melting point worked out at 175 °C. `CCOC(=O)C(=O)C(=O)OCC` returned a melting point of -30 °C. For `CCOC(=O)C(CCc1ccccc1)NC(C)C(=O)N1C(=O)N(C)CC1C(=O)O` (centres undefined), the melting point was found to be 139 °C. In the case of `Clc1cc(N2CCCCC2)ncn1`, the melting point was 79 °C.

Turning to `CC(=O)OCc1cn(C(C)=O)c2ccccc12`, the melting point lay within 85 to 86 °C. For the compound `Cc1cc(N)n(-c2ccccc2)n1`, the melting point was 116 °C. As to `CCCCCCCCCCCC(=O)c1ccccc1`, the melting point was 47 °C. Consider `CCOC(=O)c1cc(C(=O)O)c([N+](=O)[O-])cc1[N+](=O)[O-]`, for which the melting point is 154 °C. With `CCOC(=O)CN(C)C(=O)c1nn(-c2ccccc2)nc1C` the figure was 72 to 74 °C; with `COC(=O)C(C)N(C(=O)c1ccccc1)c1ccc(F)c(Cl)c1` (centres undefined), 85 °C. In turn, `CCCCCCCC(=O)OCCCC` displayed a melting point of -42.9 °C.

Regarding `CCCCCC(C)CO` (centres undefined), the melting point is -112 °C. `Cc1cc(C)cc(CC(=O)O)c1` registered a melting point of 101 °C.

For `FC(F)(F)C(F)(F)C(F)(F)c1cc(-c2ccccc2)[nH]n1`, the melting point came out at 85 °C. Compound `COC(=O)c1ccc(C2(C)C=CC=CC=C2)cc1` had a melting point of 61 °C. Consider `CC(CCC(=O)NCC(=O)O)C1CCC2C3C(O)CC4CC(O)CCC4(C)C3CC(O)C12C` (centres undefined), for which the melting point was 166 °C. With `COc1ccc(C2(C)CCc3oc4ccc(C)cc4c3-c3oc(C)cc32)cc1` (centres undefined) the figure was 170 °C; with `COc1cc(C)c2c(=O)c(-c3ccccc3)coc2c1`, 116 to 120 °C. As for `O=S1(=O)CC(O)C(Cl)C1` (centres undefined), the melting point lay in the range of 163 to 165 °C. Regarding `C=CC=CC#N`, the melting point was -60 °C.

Regarding `Cc1ccc(C)c(C=Cc2ccc(-c3ccc(C=Cc4cc(C)ccc4C)cc3)cc2)c1`, the melting point was 198 °C. As to `COc1ccc(C=C2N=C(c3ccccc3)OC2=O)cc1OC`, the melting point was 132 to 133 °C. Compound `O=C1CCc2ccc(OCCCCN3CCN(c4cccc(Cl)c4Cl)CC3)cc2N1` showed a melting point of 139 °C. The compound `O=C(C=Cc1ccc([N+](=O)[O-])cc1)c1ccccc1` came in with a melting point of 164 °C. The compound `CC1(C)OC(=O)C(=Cc2ccc(-c3ccccc3[N+](=O)[O-])o2)C(=O)O1` displayed a melting point of 153 °C. Compound `COS(=O)(=O)c1cc([N+](=O)[O-])ccc1C#Cc1ccc([N+](=O)[O-])cc1S(=O)(=O)OC` came in with a melting point of 228 °C. As to `Cc1ccc(C2(C(=O)O)CCCCC2)cc1`, the melting point is 166 to 170 °C.

Take `COC(=O)c1sccc1-c1ccc(C=O)o1`: the melting point is 117 to 118 °C. `Brc1n[nH]c2nc3ccccc3nc12` came in with a melting point of 273 to 276 °C. `COc1ccc2cc(C(C)O)ccc2c1` (racemic) returned a melting point of 111 to 114 °C. `Sc1c(Cl)c(Cl)c(Cl)c(Cl)c1Cl` displayed a melting point of 232 °C. In turn, `CSCC[C@@H](NC(=O)OC(C)(C)C)C(=O)O` yielded a melting point of 47 to 50 °C. The compound `CC(=O)OCC1OC(n2cnc3c(N)ncnc32)C(OC(C)=O)C1OC(C)=O` (centres undefined) came in with a melting point of 174 to 175 °C. For `CN(C)c1cccc2c(S(=O)(=O)NC3CC(C)(C)N(O)C3(C)C)cccc12` (centres undefined) the value was 157 to 161 °C; for `O=C(O)c1cc(Cl)cc(Cl)c1Cl`, 166 °C.

`CC(=O)c1ccc(C=O)s1` yielded a melting point of 105 to 106 °C. For `C/C(=N\O)c1ccc2c(c1)CCCC2` the value was 104 to 106 °C.

As for `Cc1c(C(=O)c2ccccc2C(=O)O)sc2ccccc12`, the melting point lay within 181 to 183 °C. With `CN1CCC(=C2c3ccccc3CC(=O)c3sccc32)CC1` the figure was 152 °C; with `CCN(CC)c1ccc(C=C2SC(=S)NC2=O)cc1`, 163 °C; with `Nc1ccc(C(O)(C(F)(F)F)C(F)(F)F)cc1`, 150 °C.

The compound `ClC[Si]12OCCN(CCO1)CCO2` showed a melting point of 221 °C. The compound `N#CC(C#N)=C1CC(c2ccc(Cl)cc2)=C(C#N)C(=N)N1c1ccccc1` came in with a melting point of 290 to 295 °C.
